Where a name gives a salt, the structure may show the parent alone.

The test system of the assay is 293T-HRE-GFP-luc cells. Kind of assay: Cell-Based Reporter Assay for IC50 Determinations. The conditions noted are these: 30 min normoxia then 6 hrs hypoxia (1% O2), luminescence, four-parameter logistic fit, read-out: Activity (IC50, HRE luciferase reporter). As for the experimental part: Cell-Based Reporter Assay for IC50 Determinations
293T-HRE-GFP-luc cells were routinely maintained in DMEM media (high glucose version with GlutaMAX and HEPES, Gibco, catalog #10564) supplemented with 10% fetal bovine serum and 2 μg/mL puromycin (Invitrogen, catalog #A11138-03) using a humidified incubator (normoxia conditions consisting of 37° C., 5% CO2 and ambient O2).
In preparation for the reporter assay, cells were harvested and resuspended in DMEM media (high glucose version with GlutaMAX and HEPES) supplemented with 10% fetal bovine serum. Cells were inoculated into 384-well white Culturplates (Perkin Elmer catalog #6007680) at a density of 12,000 cells/well in a volume of […]. The microplates were incubated overnight (approximately 17-19 hours) at 37° C. with 5% CO2 and ambient O2. Stock solutions of the test compounds were prepared in DMSO (Sigma, Catalog #D2650) and serially diluted 1:3 using DMSO. Compounds were additionally diluted (1:50) with culturemedium and 10 µL were added per well to the Culturplate. Following a 30 min. incubation under normoxia conditions, the plates were incubated in hypoxia for 6 hrs. (37° C., 5% CO2 and 1% O2). Steadylite Plus (Perkin Elmer, catalog #6016751) was then added ([…]), the plates were mixed on an orbital shaker at room temperature in the dark for 15 min., and luminescence was measured using an Envision plate reader (Perkin Elmer). IC50 values were calculated using a four-parameter logistic curve fit. Results are shown below in Table 2; ND indicates no data.
Consider `Cc1nc(-c2nc(-c3ccc(OC(F)(F)F)cc3)no2)oc1Cc1cccc(N2CCN(C)CC2)c1` [Example 7, 1-Methyl-4-(3-((4-methyl-2-(3-(4-(trifluoromethoxy)phenyl)-1,2,4-oxadiazol-5-yl)oxazol-5-yl)methyl)phenyl)piperazin-1-ium trifluoroacetate], for which the IC50 is under 0.1 µM.

Turning to `Cc1nc(-c2nc(-c3ccccc3)co2)sc1Cc1cccc(N2CCN(C)CC2)c1` [Example 3, 2-(4-Methyl-5-(3-(4-methylpiperazin-1-yl)benzyl)thiazol-2-yl)-4-phenyloxazole], the IC50 fell in the range of 1 to 10 µM. Take `Cc1oc(-c2nc(-c3ccc(OC(F)(F)F)cc3)no2)nc1Cc1cccc(Br)c1` [Example 4, 5-(4-(3-Bromobenzyl)-5-methyloxazol-2-yl)-3-(4-(trifluoromethoxy)phenyl)-1,2,4-oxadiazole]: the IC50 lay within 1 to 10 µM.

For `Cc1sc(-c2nc(-c3ccc(OC(F)(F)F)cc3)no2)nc1Cc1cccc(N2CCN(C)CC2)c1` [Example 6, 1-methyl-4-(3-((5-methyl-2-(3-(4-(trifluoromethoxy)phenyl)-1,2,4-oxadiazol-5-yl)thiazol-4-yl)methyl)phenyl)piperazin-1-ium trifluoroacetate], the IC50 is under 0.1 µM. Under `Cn1cc(-c2nc(-c3ccc(OC(F)(F)F)cc3)no2)nc1Cc1ccnc(N2CCNCC2)c1` [Example 12, 4-(4-((1-methyl-4-(3-(4-(trifluoro-methoxy)phenyl)-1,2,4-oxadiazol-5-yl)-1H-imidazol-2-yl)methyl)pyridin-2-yl)piperazin-1-ium formate] stands 1 to 10 µM.

Turning to `Cc1nc(-c2nc(-c3ccc(OC(F)(F)F)cc3)no2)sc1Cc1cccc(N2CCN(C)CC2)c1` [Example 2, 5-(4-Methyl-5-(3-(4-methylpiperazin-1-yl)benzyl)thiazol-2-yl)-3-(4-(trifluoromethoxy)phenyl)-1,2,4-oxadiazole], the IC50 was under 0.1 µM. Turning to `Cc1nc(-c2nc(-c3ccc(OC(F)(F)F)cc3)no2)oc1Cc1cccc(Br)c1` [Example 1, 5-(5-(3-Bromobenzyl)-4-methyloxazol-2-yl)-3-(4-(trifluoromethoxy)phenyl)-1,2,4-oxadiazole], the IC50 was 1 to 10 µM. As for `Cn1nc(-c2nc(-c3ccc(OC(F)(F)F)cc3)no2)nc1Cc1ccnc(N2CCNCC2)c1` [Example 8, 4-(4-((1-Methyl-3-(3-(4-(trifluoromethoxy)phenyl)-1,2,4-oxadiazol-5-yl)-1H-1,2,4-triazol-5-yl)methyl)pyridin-2-yl)piperazin-1-ium formate], the IC50 is under 0.1 µM.

On to `Cc1oc(-c2nc(-c3ccc(OC(F)(F)F)cc3)no2)nc1Cc1cccc(N2CCN(C)CC2)c1` [Example 5, 1-methyl-4-(3-((5-methyl-2-(3-(4-(trifluoromethoxy)phenyl)-1,2,4-oxadiazol-5-yl)oxazol-4-yl)methyl)phenyl)piperazin-1-ium trifluoroacetate], for which the IC50 is under 0.1 µM. Consider `CN1CCN(c2cc(Cc3nc(-c4nc(-c5ccc(OC(F)(F)F)cc5)no4)cn3C)ccn2)CC1` [Example 10, 5-(1-Methyl-2-((2-(4-methylpiperazin-1-yl)pyridin-4-yl)methyl)-1H-imidazol-4-yl)-3-(4-(trifluoromethoxy)phenyl)-1,2,4-oxadiazole], for which the IC50 is under 0.1 µM. On to `Cc1oc(-c2nc(-c3ccc(OC(F)(F)F)cc3)no2)nc1Cc1cccc(N(C)C)c1` [Example 14, N,N-dimethyl-3-((5-methyl-2-(3-(4-(trifluoromethoxy)phenyl)-1,2,4-oxadiazol-5-yl)oxazol-4-yl)methyl)aniline], for which the IC50 is under 0.1 µM. Consider `Cc1oc(-c2nc(-c3ccc(OC(F)(F)F)cc3)no2)nc1Cc1cccc(N2CCOCC2)c1` [Example 11, 4-(3-((5-Methyl-2-(3-(4-(trifluoromethoxy)phenyl)-1,2,4-oxadiazol-5-yl)oxazol-4-yl)methyl)phenyl)morpholine], for which the IC50 is under 0.1 µM. Turning to `Cc1oc(-c2nc(-c3ccc(OC(F)(F)F)cc3)no2)nc1Cc1cccc(N2CCCCC2)c1` [Example 13], the 50% inhibitory concentration (IC50) is under 0.1 µM. As for `CN1CCN(c2cc(Cc3nc(-c4nc(-c5ccc(OC(F)(F)F)cc5)no4)nn3C)ccn2)CC1` [Example 9, 1-Methyl-4-(4-((1-methyl-3-(3-(4-(trifluoromethoxy)phenyl)-1,2,4-oxadiazol-5-yl)-1H-1,2,4-triazol-5-yl)methyl)pyridin-2-yl)piperazin-1-ium formate], the IC50 is under 0.1 µM.

As usually defined, the IC50 is the point on the concentration scale where inhibition reaches its midpoint.

The values above are taken from patent publication US9115120B2, “Heterocyclic modulators of HIF activity for treatment of disease” (Board of Regents, The University of Texas System, priority 2012, dated 2015).
